Drawing on US8471005B2 (Cephalon, Inc., priority 2008, dated 2013), this text covers IC50 for 21 compounds.

Where only a bound is given, the exact number is not on record here.

One experiment has as its target T1, JAK2 (Homo sapiens, UniProt O60674).
T1 construct: host or cells: baculovirus expression system
In words: Recombinant Human JAK2 Kinase Assay (TRF). The class given is biochemical. As to conditions: JAK2 kinase inhibition, 0.2 μM ATP; read-out: JAK2 Potency. Here is the method:
Compounds were tested for their ability to inhibit the kinase activity of baculovirus-expressed JAK2 using the TRF detection system. […] The plates were coated first with 100 μL/well of 10 μg/mL Neutravidin (Pierce #31000, Rockford, Ill.) in TBS at 37° C. for 2 hours, followed by 100 μL/well of 1 μg/mL 15-mer peptide substrate (biotinyl-amino-hexanoyl-[…]-amide, Infinity Biotech Research and Resource, Aston, Pa.) at 37° C. for another hour. The JAK2 assay mixture (total volume=100 μL/well) consisting of 20 mM HEPES (pH 7.2), 0.2 μM ATP, 1 mM MnCl2, 0.1% BSA, and test compound (diluted in DMSO; 2.5% DMSO final in assay) was then added to the assay plate. Enzyme (15 ng/ml JAK2) was added and the reaction was allowed to proceed at room temperature for 20 minutes. Detection of the phosphorylated product was performed by adding 100 μL/well of Eu—N1 labeled PY100 antibody (PerkinElmer Life Sciences #AD0041, Boston, Mass.).

For the next experiment, the target named is T2, ALK (Homo sapiens, UniProt Q9UM73).
T2 construct: host or cells: baculovirus expression system
T2 sequence (Q9UM73 19-1620): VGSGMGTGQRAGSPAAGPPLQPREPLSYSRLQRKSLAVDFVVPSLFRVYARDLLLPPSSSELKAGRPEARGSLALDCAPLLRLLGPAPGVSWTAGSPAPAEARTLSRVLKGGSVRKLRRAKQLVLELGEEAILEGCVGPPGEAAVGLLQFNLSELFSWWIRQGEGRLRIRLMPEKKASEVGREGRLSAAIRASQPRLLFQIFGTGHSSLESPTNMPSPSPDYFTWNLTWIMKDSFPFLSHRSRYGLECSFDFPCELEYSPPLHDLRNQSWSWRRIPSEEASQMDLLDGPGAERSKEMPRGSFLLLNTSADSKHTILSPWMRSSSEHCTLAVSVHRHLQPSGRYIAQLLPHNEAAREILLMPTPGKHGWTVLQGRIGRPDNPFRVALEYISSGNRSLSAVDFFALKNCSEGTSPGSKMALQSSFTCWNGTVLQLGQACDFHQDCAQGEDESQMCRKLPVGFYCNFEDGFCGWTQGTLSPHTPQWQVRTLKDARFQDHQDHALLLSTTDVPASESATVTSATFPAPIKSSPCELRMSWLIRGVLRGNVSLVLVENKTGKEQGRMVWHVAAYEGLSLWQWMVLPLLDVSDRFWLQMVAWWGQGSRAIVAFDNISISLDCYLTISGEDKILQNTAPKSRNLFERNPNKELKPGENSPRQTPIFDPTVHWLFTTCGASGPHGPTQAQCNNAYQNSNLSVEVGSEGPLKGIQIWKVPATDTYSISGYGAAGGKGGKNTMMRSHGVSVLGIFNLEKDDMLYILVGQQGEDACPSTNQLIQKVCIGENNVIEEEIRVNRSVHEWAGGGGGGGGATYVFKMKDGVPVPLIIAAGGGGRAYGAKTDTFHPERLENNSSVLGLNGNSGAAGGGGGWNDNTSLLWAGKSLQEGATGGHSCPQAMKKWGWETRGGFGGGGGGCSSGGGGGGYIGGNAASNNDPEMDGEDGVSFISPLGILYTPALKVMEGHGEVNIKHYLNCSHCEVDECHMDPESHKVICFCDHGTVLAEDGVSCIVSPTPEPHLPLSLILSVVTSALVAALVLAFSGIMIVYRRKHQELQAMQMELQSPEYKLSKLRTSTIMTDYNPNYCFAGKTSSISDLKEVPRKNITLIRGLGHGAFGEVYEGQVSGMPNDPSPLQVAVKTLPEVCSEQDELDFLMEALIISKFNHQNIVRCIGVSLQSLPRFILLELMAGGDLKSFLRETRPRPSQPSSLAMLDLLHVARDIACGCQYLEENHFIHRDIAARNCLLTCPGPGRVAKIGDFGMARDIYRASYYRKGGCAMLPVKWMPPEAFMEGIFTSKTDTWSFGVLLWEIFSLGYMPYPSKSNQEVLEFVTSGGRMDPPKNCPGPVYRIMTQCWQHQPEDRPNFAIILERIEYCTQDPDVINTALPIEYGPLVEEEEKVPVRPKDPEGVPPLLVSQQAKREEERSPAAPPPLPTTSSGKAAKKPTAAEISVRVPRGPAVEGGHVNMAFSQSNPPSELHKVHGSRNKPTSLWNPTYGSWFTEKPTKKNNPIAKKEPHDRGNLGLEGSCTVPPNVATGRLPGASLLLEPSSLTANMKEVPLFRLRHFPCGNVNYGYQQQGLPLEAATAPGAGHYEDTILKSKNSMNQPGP
Briefly: ALK Kinase Assay (ELISA/TRF, PLC-γ substrate). The class given is biochemical. The conditions noted are these: ALK kinase inhibition, 1 μM ATP; read-out: ALK Potency. As for the experimental part: Briefly, each 96-well plate was coated with […] of 10 μg/mL substrate (phospholipase C-γ) in Tris-buffered saline (TBS). […] The reaction was initiated by adding enzyme (30 ng/ml ALK) and was allowed to proceed at 37° C. for 15 minutes. Detection of the phosphorylated product was performed by adding 100 μl/well of Eu—N1 labeled PT66 antibody (Perkin Elmer # AD0041).
Data analysis was performed using ActivityBase (IDBS, Guilford, UK). IC50 values were calculated by plotting percent inhibition versus log10 of the concentration of compound and fitting to the nonlinear regression sigmoidal dose-response (variable slope) equation in XLFit (IDBS, Guilford, UK).

T1 sequence (O60674 whole entry): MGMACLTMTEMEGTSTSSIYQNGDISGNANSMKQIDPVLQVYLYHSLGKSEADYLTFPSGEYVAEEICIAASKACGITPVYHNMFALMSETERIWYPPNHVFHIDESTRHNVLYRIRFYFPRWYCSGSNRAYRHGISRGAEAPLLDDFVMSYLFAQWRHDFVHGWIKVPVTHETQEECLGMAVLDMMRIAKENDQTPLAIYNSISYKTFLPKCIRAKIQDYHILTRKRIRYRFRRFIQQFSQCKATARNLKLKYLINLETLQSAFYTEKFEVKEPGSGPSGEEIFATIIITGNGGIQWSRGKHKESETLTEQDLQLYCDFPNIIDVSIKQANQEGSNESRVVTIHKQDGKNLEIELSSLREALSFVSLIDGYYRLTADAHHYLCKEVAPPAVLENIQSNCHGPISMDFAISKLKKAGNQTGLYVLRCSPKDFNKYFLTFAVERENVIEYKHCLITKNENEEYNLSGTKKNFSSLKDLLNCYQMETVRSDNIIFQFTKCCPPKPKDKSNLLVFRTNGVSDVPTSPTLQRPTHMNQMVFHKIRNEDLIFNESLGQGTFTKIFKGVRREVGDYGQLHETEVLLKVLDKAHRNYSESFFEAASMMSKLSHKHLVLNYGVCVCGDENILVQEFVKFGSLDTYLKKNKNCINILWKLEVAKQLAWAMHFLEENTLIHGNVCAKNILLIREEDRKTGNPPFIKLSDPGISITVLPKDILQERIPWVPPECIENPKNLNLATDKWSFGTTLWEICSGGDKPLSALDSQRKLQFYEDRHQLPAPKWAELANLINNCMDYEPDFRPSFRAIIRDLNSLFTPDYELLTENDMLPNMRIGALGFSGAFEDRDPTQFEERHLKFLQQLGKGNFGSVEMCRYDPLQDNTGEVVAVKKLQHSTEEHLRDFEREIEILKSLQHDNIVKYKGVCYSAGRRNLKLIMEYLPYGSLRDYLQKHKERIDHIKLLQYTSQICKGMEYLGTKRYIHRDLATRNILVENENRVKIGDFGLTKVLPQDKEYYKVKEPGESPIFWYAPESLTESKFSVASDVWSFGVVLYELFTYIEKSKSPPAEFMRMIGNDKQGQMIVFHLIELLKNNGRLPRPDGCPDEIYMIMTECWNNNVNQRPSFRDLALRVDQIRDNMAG

`COc1ccccc1-c1ccc2cnc(Nc3ccc4c(c3OC)CC(N3CCOCC3)CCC4)nn12` (racemic) [Example 768, (±)-1-Methoxy-8-morpholin-4-yl-6,7,8,9-tetrahydro-5H-enzocyclohepten-2-yl)-[7-(2-methoxy-phenyl)-pyrrolo[2,1-f][1,2,4]triazin-2-yl]-amine]: the IC50 at JAK2 and at ALK was 100 to 1000 nM in each case.
For the compound `CCN1CCCC(CC)(c2ccc(Nc3ncc4ccc(-c5ccccc5OC)n4n3)cc2)C1` (racemic) [Example 777, (±)-[4-(1,3-Diethyl-piperidin-3-yl)-phenyl]-[7-(2-methoxy-phenyl)pyrrolo-[2,1-f][1,2,4]triazin-2-yl]-amine], the IC50 at JAK2 and at ALK was less than 100 nM throughout.
For `CCN1CCCC(CC)(c2ccc(Nc3ncc4ccc(-c5ccccc5N(C)S(C)(=O)=O)n4n3)cc2)C1` (racemic) [Example 778, (±)-N-(2-{2-[4-(1,3-Diethyl-piperidin-3-yl)-phenylamino]-pyrrolo[2,1-f][1,2,4]triazin-7-yl}-phenyl)-N-methyl-methanesulfonamide], the IC50 on JAK2 and on ALK was less than 100 nM throughout.
Turning to `COc1cc(N2CCC(N3CCOCC3)C2)ccc1Nc1ncc2ccc(-c3ccccc3OC)n2n1` (racemic) [Example 779, (±)-[2-Methoxy-4-(3-morpholin-4-yl-pyrrolidin-1-yl)-phenyl]-[7-(2-methoxyphenyl)-pyrrolo[2,1-f][1,2,4]triazin-2-yl]-amine], the IC50 at JAK2 and on ALK was 100 to 1000 nM each time.
As to `COc1cc(N2CCC(N3CCOCC3)C2)ccc1Nc1ncc2ccc(-c3ccccc3N(C)S(C)(=O)=O)n2n1` (racemic) [Example 782, (±)-N-(2-{2-[2-Methoxy-4-(3-morpholin-4-yl-pyrrolidin-1-yl)-phenylamino]-pyrrolo[2,1-f][1,2,4]triazin-7-yl}-phenyl)-N-methyl-methanesulfonamide], the IC50 is 100 to 1000 nM on JAK2 and less than 100 nM on ALK.
On the same counts, the results for `COc1cc(C2CCN(CC(O)CF)CC2)ccc1Nc1ncc2ccc(-c3ccccc3N(C)S(C)(=O)=O)n2n1` (racemic) [Example 826, (±)-N-[2-(2-{4-[1-(3-Fluoro-2-hydroxy-propyl)-piperidin-4-yl]-2-methoxy-phenylamino}-pyrrolo[2,1-f][1,2,4]triazin-7-yl)-phenyl]-N-methyl-methanesulfonamide] are 100 to 1000 nM and less than 100 nM.
On the same counts, the results for `COc1cc([C@@]2(O)CCN(CCF)C[C@@H]2O)ccc1Nc1ncc2ccc(-c3ccccc3OC)n2n1` (racemic) [Example 833, (±)-(3S,4S)-1-(2-Fluoro-ethyl)-4-{3-methoxy-4-[7-(2-methoxy-phenyl)-pyrrolo[2,1-f][1,2,4]triazin-2-ylamino]-phenyl}-piperidine-3,4-diol] are less than 100 nM and less than 100 nM.
The corresponding values for `COc1cc([C@@H]2CCN(C(=O)OC(C)(C)C)C[C@@H]2O)ccc1Nc1ncc2ccc(-c3ccccc3OC)n2n1` (racemic) [Example 834, (±)-(3R,4S)-3-Hydroxy-4-{3-methoxy-4-[7-(2-methoxy-phenyl)-pyrrolo[2,1-f][1,2,4]triazin-2-ylamino]-phenyl}-piperidine-1-carboxylic acid tert-butyl ester] are 100 to 1000 nM and 100 to 1000 nM.
In the case of `COc1cc(C2CCN(CC(N)=O)C2)ccc1Nc1ncc2ccc(-c3ccccc3OC)n2n1` (racemic) [Example 836, (±)-2-(3-{3-Methoxy-4-[7-(2-methoxy-phenyl)-pyrrolo[2,1-f][1,2,4]triazin-2-ylamino]-phenyl}-pyrrolidin-1-yl)-acetamide], the IC50 at JAK2 and on ALK was less than 100 nM in each case.
In the case of `COc1cc(C2CCN(CC(N)=O)C2)ccc1Nc1ncc2ccc(-c3ccccc3N(C)S(C)(=O)=O)n2n1` (racemic) [Example 837, (±)-2-[3-(4-{7-[2-(Methanesulfonyl-methyl-amino)-phenyl]-pyrrolo[2,1-f][1,2,4]triazin-2-ylamino}-3-methoxy-phenyl)-pyrrolidin-1-yl]-acetamide], the IC50 on JAK2 is 100 to 1000 nM; at ALK, less than 100 nM.
On the same counts, the results for `COc1cc([C@@H]2CCN(CCF)C[C@@H]2O)ccc1Nc1ncc2ccc(-c3ccccc3OC)n2n1` (racemic) [Example 838, (±)-(3R,4S)-1-(2-Fluoro-ethyl)-4-{3-methoxy-4-[7-(2-methoxy-phenyl)-pyrrolo[2,1-f][1,2,4]triazin-2-ylamino]-phenyl}-piperidin-3-ol] are less than 100 nM and less than 100 nM.
With `COc1cc([C@@H]2CCNC[C@@H]2O)ccc1Nc1ncc2ccc(-c3ccccc3N(C)S(C)(=O)=O)n2n1` (racemic) [Example 841, (±)-N-(2-{2-[4-((3R,4S)-3-Hydroxy-piperidin-4-yl)-2-methoxy-phenylamino]-pyrrolo[2,1-f][1,2,4]triazin-7-yl}-phenyl)-N-methyl-methanesulfonamide], the results for the IC50 at JAK2 and at ALK were 1000 to 10000 nM and less than 100 nM, respectively.
In the case of `COc1cc([C@@H]2CCN(CC(N)=O)C[C@@H]2O)ccc1Nc1ncc2ccc(-c3ccccc3N(C)S(C)(=O)=O)n2n1` (racemic) [Example 842, (±)-2-[(3R,4S)-3-Hydroxy-4-(4-{7-[2-(methanesulfonyl-methyl-amino)-phenyl]-pyrrolo[2,1-f][1,2,4]triazin-2-ylamino}-3-methoxy-phenyl)-piperidin-1-yl]-acetamide], the results for the IC50 at JAK2 and at ALK were 100 to 1000 nM and less than 100 nM, respectively.
The corresponding values for `COc1cc([C@@H]2CCN(CCF)C[C@@H]2O)ccc1Nc1ncc2ccc(-c3ccccc3N(C)S(C)(=O)=O)n2n1` (racemic) [Example 843, (±)-N-[2-(2-{4-[(3R,4S)-1-(2-Fluoro-ethyl)-3-hydroxy-piperidin-4-yl]-2-methoxy-phenylamino}-pyrrolo[2,1-f][1,2,4]triazin-7-yl)-phenyl]-N-methyl-methanesulfonamide] are 100 to 1000 nM and less than 100 nM.
On the same counts, the results for `COc1cc([C@@]2(O)CCN(CCF)C[C@@H]2O)ccc1Nc1ncc2ccc(-c3ccccc3N(C)S(C)(=O)=O)n2n1` (racemic) [Example 845, (±)-N-[2-(2-{4-[(3S,4S)-1-(2-Fluoro-ethyl)-3,4-dihydroxy-piperidin-4-yl]-2-methoxy-phenylamino}-pyrrolo[2,1-f][1,2,4]triazin-7-yl)-phenyl]-N-methyl-methanesulfonamide] are 100 to 1000 nM and less than 100 nM.
The corresponding values for `COCCN1CC[C@](O)(c2ccc(Nc3ncc4ccc(-c5ccccc5N(C)S(C)(=O)=O)n4n3)c(OC)c2)[C@@H](O)C1` (racemic) [Example 846, (±)-N-[2-(2-{4-[(3S,4S)-3,4-Dihydroxy-1-(2-methoxy-ethyl)-piperidin-4-yl]-2-methoxy-phenylamino}-pyrrolo[2,1-f][1,2,4]triazin-7-yl)-phenyl]-N-methyl-methanesulfonamide] are 100 to 1000 nM and less than 100 nM.
As to `COc1cc([C@@H]2CCN(CCO)C[C@@H]2O)ccc1Nc1ncc2ccc(-c3ccccc3N(C)S(C)(=O)=O)n2n1` (racemic) [Example 847, (±)-N-[2-(2-{4-[(3R,4S)-3-Hydroxy-1-(2-hydroxy-ethyl)-piperidin-4-yl]-2-methoxy-phenylamino}-pyrrolo[2,1-f][1,2,4]triazin-7-yl)-phenyl]-N-methyl-methanesulfonamide], the values for the IC50 at JAK2 and at ALK were 100 to 1000 nM and less than 100 nM, respectively.
The corresponding values for `COc1cc(C2CCN(C)CC2C)ccc1Nc1ncc2ccc(-c3ccccc3OC)n2n1` (racemic) [Example 858, (±)-[4-(1,3-Dimethyl-piperidin-4-yl)-2-methoxy-phenyl]-[7-(2-methoxy-phenyl)-pyrrolo[2,1-f][1,2,4]triazin-2-yl]-amine] are 100 to 1000 nM and less than 100 nM.
On the same counts, the results for `COc1cc(C2CCN(C)CC2OC)ccc1Nc1ncc2ccc(-c3ccccc3OC)n2n1` (racemic) [Example 859, (±)-[2-Methoxy-4-(3-methoxy-1-methyl-piperidin-4-yl)-phenyl]-[7-(2-methoxy-phenyl)-pyrrolo[2,1-f][1,2,4]triazin-2-yl]-amine] are less than 100 nM and less than 100 nM.
The corresponding values for `COc1cc(C2CCCN(CC(N)=O)C2)ccc1Nc1ncc2ccc(-c3ccccc3OC)n2n1` (racemic) [Example 860, (±)-2-(3-{3-Methoxy-4-[7-(2-methoxy-phenyl)-pyrrolo[2,1-f][1,2,4]triazin-2-ylamino]-phenyl}-piperidin-1-yl)-acetamide] are less than 100 nM and less than 100 nM.
Take `COc1cc(C2CCCN(CC(N)=O)C2)ccc1Nc1ncc2ccc(-c3ccccc3N(C)S(C)(=O)=O)n2n1` (racemic) [Example 861, (±)-2-[3-(4-{7-[2-(Methanesulfonyl-methyl-amino)-phenyl]-pyrrolo[2,1-f][1,2,4]triazin-2-ylamino}-3-methoxy-phenyl)-piperidin-1-yl]-acetamide]: the IC50 on JAK2 is 100 to 1000 nM; on ALK, less than 100 nM.
